Assay results taken from patent US20180161314A1, “Methods for Treating Hyperuricemia and Related Diseases” (Ardea Biosciences, Inc., priority 2010, published 2018).

Tested on: healthy adult subjects
Experiment: Drug 1 / febuxostat cross-over interaction study in healthy adult subjects (Examples 10-12)
Assay type: in vivo, human
Details: for % serum uric acid change, Mean: drug 1 200 mg qd, febuxostat 40 mg qd; for Absolute sUA reduction from baseline, Intraday peak / Absolute sUA reduction from baseline, Trough / Percent sUA reduction from baseline, Intraday peak / Percent sUA reduction from baseline, Trough: febuxostat 40 mg alone
Source text: Study Objectives • To compare the multiple-dose pharmacokinetics of febuxostat in the absence versus presence of drug 1 co-administration. • To compare the multiple-dose pharmacokinetics of drug 1 in the absence versus presence of febuxostat co-administration. • To measure the effects of drug 1 and febuxostat, both alone and in combination, on serum uric acid concentrations and amounts of urate excreted into urine. • To evaluate the safety and tolerability of multiple-doses of drug 1 and febuxostat, both alone or in combination.
The study is a two or three-panel, placebo-controlled (for drug 1), double-blinded (for drug 1 and matched placebo), randomized, cross-over study with up to 54 healthy adult subjects. Each panel consisting of 18 subjects is sequentially enrolled, starting with Panel 1 (200 mg once daily dose of drug 1 or placebo), followed by Panel 2 (400 mg once daily dose of drug 1 or placebo), and followed by optional Panel 3 (100 mg to 600 mg once daily dose of drug 1 or placebo). The placebo control is included in this study to better assess safety and tolerability and the serum urate lowering effect of drug 1 in combination with febuxostat. Serum urate levels may be influenced by frequent blood draws and meal contents; therefore, the true effect on serum urate levels can be determined by correcting for placebo (subtract serum urate effect in placebo subjects from serum urate effect in active subjects).
Subjects in each panel are randomly assigned to one of two treatment sequences (Sequence A or B) after all Baseline (Day −1) procedures have been completed. Each treatment sequence within a panel consists of 9 subjects randomly assigned to receive drug 1 (6 of 9 subjects) or matching placebo (3 of 9 subjects) in a double-blinded fashion. For each treatment sequence, single-agent drug treatment is administered on Days 1 to 7 (either open-label febuxostat or double-blinded drug 1 or matched placebo by random assignment), followed by combination treatment on Days 8 to 14, and completing with the alternative single-agent drug treatment on Days 15 to 21, as follows (Panel 1 shown in FIG. 2):
Sequence A: Days 1-7: Febuxostat, 40 mg (once daily) • Days 8 to 14: drug 1, 200 mg or placebo in combination with febuxostat (once daily) • Days 15-21: drug 1, 200 mg, or placebo (once daily) Sequence B: Days 1-7: drug 1, 200 mg, or placebo (once daily) • Days 8 to 14: drug 1, 200 mg or placebo in combination with febuxostat (once daily) • Days 15-21: Febuxostat, 40 mg (once daily) […]
Serial blood samples for PK and PD assessments are collected up to 24 hours after dosing on Days 7, 14, and 21. Urine (total catch) for assays of drug 1, creatinine, and uric acid are collected starting on Day −1 (pre-treatment baseline) and after dosing on Days 7, 14, and 21. Final safety assessments are completed when subjects return to the clinic at 7±1 days after discharge from the clinic on Day 22 (Follow-Up visit on Day 29). The total volume of blood collected from each subject is approximately 518 mL.
Screening procedures to determine subject eligibility are performed 28 days before the first dose of study drug (Day 1). A total of up to 54 subjects enrolled in up to 3 panels consisting of 2 sequences each, with 9 subjects per sequence (18 subjects per panel). Subjects withdrawing after dosing are not replaced.
Subjects in Panel 1 receive a 200 mg dose of drug 1 or placebo once daily for 14 days and a 40 mg dose of febuxostat once daily for 14 days. Subjects in Panel 2 receive a 400 mg dose of drug 1 or placebo once daily for 14 days and a 40 mg dose of febuxostat once daily for 14 days. Subjects in Panel 3 receive a 100-600 mg dose of drug 1 or placebo once daily for 14 days and a 40 mg dose of febuxostat once daily for 14 days.
Subjects in Sequence A begin dosing on Day 1 with febuxostat and take their first dose of drug 1 or placebo on Day 8. […]

[1] = Week 2, Drug 1 200 mg + febuxostat 40 mg combo

Cc1nc(-c2ccc(OCC(C)C)c(C#N)c2)sc1C(=O)O [Febuxostat, 2-(3-Cyano-4-isobutoxyphenyl)-4-methyl-1,3-thiazole-5-carboxylic acid, reference compound]
serum uric acid change from baseline, daily (Day 1, Drug 1 200 mg, FBX 40 mg): −6.4% | % serum uric acid change, Mean (Day 1): −7.5% | serum uric acid change from baseline, daily (Day 2, Drug 1 200 mg, FBX 40 mg): −25.7% | % serum uric acid change, Mean (Day 2): −23.8% | serum uric acid change from baseline, daily (Day 3, Drug 1 200 mg, FBX 40 mg): −33.6% | % serum uric acid change, Mean (Day 3): −30.5% | serum uric acid change from baseline, daily (Day 4, Drug 1 200 mg, FBX 40 mg): −37.8% | % serum uric acid change, Mean (Day 4): −34.5% | serum uric acid change from baseline, daily (Day 5, Drug 1 200 mg, FBX 40 mg): −37.9% | % serum uric acid change, Mean (Day 5): −34.3% | serum uric acid change from baseline, daily (Day 6, Drug 1 200 mg, FBX 40 mg): −42.6% | % serum uric acid change, Mean (Day 6): −38.1% | serum uric acid change from baseline, daily (Day 7, Drug 1 200 mg, FBX 40 mg): −44.6% | % serum uric acid change, Mean (Day 7): −39.0% | serum uric acid change from baseline, daily (Day 8, Drug 1 200 mg, FBX 40 mg, alone or combined as labelled): −42.7% | % serum uric acid change, Mean (Day 8): −38.9% | serum uric acid change from baseline, daily (Day 9, Drug 1 200 mg, FBX 40 mg, alone or combined as labelled): −38.1% | serum uric acid change from baseline, daily (Day 10, Drug 1 200 mg, FBX 40 mg, alone or combined as labelled): −40% | serum uric acid change from baseline, daily (Day 11, Drug 1 200 mg, FBX 40 mg, alone or combined as labelled): −39.2% | serum uric acid change from baseline, daily (Day 12, Drug 1 200 mg, FBX 40 mg, alone or combined as labelled): −36.9% | serum uric acid change from baseline, daily (Day 13, Drug 1 200 mg, FBX 40 mg, alone or combined as labelled): −36.8% | serum uric acid change from baseline, daily (Day 14, Drug 1 200 mg, FBX 40 mg, alone or combined as labelled): −42% | serum uric acid change from baseline, daily (Day 15, Drug 1 200 mg, FBX 40 mg, alone or combined as labelled): −39.1% | serum uric acid change from baseline, daily (Day 15, FBX 40 mg after combo): −62.3% | serum uric acid change from baseline, daily (Day 16, Drug 1 200 mg alone (week 3), FBX 40 mg alone): −36.5% | serum uric acid change from baseline, daily (Day 16, FBX 40 mg after combo): −50.9% | serum uric acid change from baseline, daily (Day 17, Drug 1 200 mg alone (week 3), FBX 40 mg alone): −35.8% | serum uric acid change from baseline, daily (Day 17, FBX 40 mg after combo): −45.6% | serum uric acid change from baseline, daily (Day 18, Drug 1 200 mg alone (week 3), FBX 40 mg alone): −36.3% | serum uric acid change from baseline, daily (Day 18, FBX 40 mg after combo): −45.7% | serum uric acid change from baseline, daily (Day 19, Drug 1 200 mg alone (week 3), FBX 40 mg alone): −33.6% | serum uric acid change from baseline, daily (Day 19, FBX 40 mg after combo): −41% | serum uric acid change from baseline, daily (Day 20, Drug 1 200 mg alone (week 3), FBX 40 mg alone): −34.3% | serum uric acid change from baseline, daily (Day 20, FBX 40 mg after combo): −42.9% | serum uric acid change from baseline, daily (Day 21, Drug 1 200 mg alone (week 3), FBX 40 mg alone): −37.6% | serum uric acid change from baseline, daily (Day 21, FBX 40 mg after combo): −49.1% | serum uric acid change from baseline, daily (Day 22, Drug 1 200 mg alone (week 3), FBX 40 mg alone): −35.2% | serum uric acid change from baseline, daily (Day 22, FBX 40 mg after combo): −45.7% | Absolute sUA reduction from baseline, Intraday peak (Week 1, Drug 1 200 mg alone): -3.4 mg/dL | Absolute sUA reduction from baseline, Trough (Week 1, Drug 1 200 mg alone): -2.8 mg/dL | Percent sUA reduction from baseline, Intraday peak (Week 1, Drug 1 200 mg alone): −55.3% | Percent sUA reduction from baseline, Trough (Week 1, Drug 1 200 mg alone): −45.4% | Absolute sUA reduction from baseline, Intraday peak [1]: -3.1 mg/dL | Absolute sUA reduction from baseline, Trough [1]: -2.6 mg/dL | Percent sUA reduction from baseline, Intraday peak [1]: −50.1% | Percent sUA reduction from baseline, Trough [1]: −41.2% | Absolute sUA reduction from baseline, Intraday peak (Week 3, Drug 1 200 mg alone): -3.3 mg/dL | Absolute sUA reduction from baseline, Trough (Week 3, Drug 1 200 mg alone): -2.7 mg/dL | Percent sUA reduction from baseline, Intraday peak (Week 3, Drug 1 200 mg alone): −49.0% | Percent sUA reduction from baseline, Trough (Week 3, Drug 1 200 mg alone): −42.1%
